Data: PubChem BioAssay AID328 (DTP/NCI, 2004)
“And” between values parts separate entries of the source, which are not always exact repeats. Equal values may be shown once. Inconclusive results and toxic doses are left out.

System: BDF1 mice, P388 leukemia ip, median survival T/C
Test: NCI In Vivo Anticancer Drug Screen. Data for tumor model P388 Leukemia (intraperitoneal) in B6D2F1 (BDF1) mice
Conditions: endpoint: median survival time, higher = longer survival
Summary of the method: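 T/C = treated-group survival ÷ vehicle-control survival; tumour transplanted into mice before dosing.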

[1] = dose: 100.0 mg/kg/injection, schedule: Q01DX001 (ip), vehicle: saline with Tween-80
[2] = dose: 200.0 mg/kg/injection, schedule: Q01DX001 (ip), vehicle: saline with Tween-80
[3] = dose: 400.0 mg/kg/injection, schedule: Q01DX001 (ip), vehicle: saline with Tween-80
[4] = dose: 100.0 mg/kg/injection, schedule: Q04DX003 (ip), vehicle: Klucel (hydroxypropylcellulose) (HPC)
[5] = dose: 200.0 mg/kg/injection, schedule: Q04DX003 (ip), vehicle: Klucel (hydroxypropylcellulose) (HPC)
[6] = dose: 400.0 mg/kg/injection, schedule: Q04DX003 (ip), vehicle: Klucel (hydroxypropylcellulose) (HPC)
[7] = dose: 100.0 mg/kg/injection, schedule: Q04DX003 (ip), vehicle: saline with Tween-80
[8] = dose: 100.0 mg/kg/injection, schedule: Q01DX009 (ip), vehicle: saline
[9] = dose: 200.0 mg/kg/injection, schedule: Q01DX009 (ip), vehicle: saline
[10] = dose: 400.0 mg/kg/injection, schedule: Q01DX009 (ip), vehicle: saline
[11] = dose: 100.0 mg/kg/injection, schedule: Q04DX003 (ip), vehicle: saline
[12] = dose: 200.0 mg/kg/injection, schedule: Q04DX003 (ip), vehicle: saline
[13] = dose: 50.0 mg/kg/injection, schedule: Q04DX003 (ip), vehicle: saline
[14] = dose: 50.0 mg/kg/injection, schedule: Q01DX009 (ip), vehicle: saline with Tween-80
[15] = dose: 200.0 mg/kg/injection, schedule: Q01DX009 (ip), vehicle: saline with Tween-80
[16] = dose: 100.0 mg/kg/injection, schedule: Q01DX009 (ip), vehicle: Klucel (hydroxypropylcellulose) (HPC)
[17] = dose: 200.0 mg/kg/injection, schedule: Q01DX009 (ip), vehicle: Klucel (hydroxypropylcellulose) (HPC)
[18] = dose: 400.0 mg/kg/injection, schedule: Q01DX009 (ip), vehicle: Klucel (hydroxypropylcellulose) (HPC)
[19] = dose: 25.0 mg/kg/injection, schedule: Q01DX009 (ip), vehicle: saline
[20] = dose: 50.0 mg/kg/injection, schedule: Q01DX009 (ip), vehicle: saline

SMILES: c1coc(NC2CCCCC2)n1
- T/C [1]: 90 % of control
- T/C [2]: 95 % of control
- T/C [3]: 95 % of control

SMILES: C#CCOCC1CN(c2ccccc2)C(=O)O1 (stereo unspecified)
- T/C [4]: 95 % of control
- T/C [5]: 100 % of control
- T/C [6]: 100 % of control

SMILES: Cc1cccc(NC(=O)CCc2ccc(N3C(N)=NC(N)=NC3(C)C)cc2)c1
- T/C (dose: 58.0 mg/kg/injection, schedule: Q01DX009 (ip), vehicle: saline with Tween-80): 111 % of control
- T/C (dose: 88.0 mg/kg/injection, schedule: Q01DX009 (ip), vehicle: saline with Tween-80): 119 % of control
- T/C (dose: 132.0 mg/kg/injection, schedule: Q01DX009 (ip), vehicle: saline with Tween-80): 119 % of control and 122 % of control

SMILES: CC(C)(C)c1ccc(OS(=O)(=O)c2ccccc2[N+](=O)[O-])cc1
- T/C [1]: 104 % of control
- T/C [2]: 100 % of control
- T/C [3]: 113 % of control

SMILES: NC(c1ccccc1)C(N)c1ccccc1 (stereo unspecified)
- T/C [7]: 95 % of control

SMILES: CC1CCC(NC2=NCCO2)C1 (stereo unspecified)
- T/C [1]: 87 % of control
- T/C [2]: 91 % of control
- T/C [3]: 95 % of control

SMILES: CCCCCCCCCCCCCCCCNC(=S)Nc1ccc(C(=O)O)cc1
- T/C (dose: 50.0 mg/kg/injection, schedule: Q01DX001 (ip), vehicle: Klucel (hydroxypropylcellulose) (HPC)): 113 % of control
- T/C (dose: 100.0 mg/kg/injection, schedule: Q01DX001 (ip), vehicle: Klucel (hydroxypropylcellulose) (HPC)): 109 % of control
- T/C (dose: 200.0 mg/kg/injection, schedule: Q01DX001 (ip), vehicle: Klucel (hydroxypropylcellulose) (HPC)): 100 % of control

SMILES: CCCCCCCCCCCCCCCCCC[N+]1([O-])CCCC1
- T/C (dose: 12.5 mg/kg/injection, schedule: Q01DX009 (ip), vehicle: water): 100 % of control
- T/C (dose: 25.0 mg/kg/injection, schedule: Q01DX009 (ip), vehicle: water): 93 % of control
- T/C (dose: 50.0 mg/kg/injection, schedule: Q01DX009 (ip), vehicle: water): 93 % of control

SMILES: C[N+](C)(CCCCOCCCC[N+](C)(C)Cc1ccc([N+](=O)[O-])cc1)Cc1ccc([N+](=O)[O-])cc1
- T/C (dose: 0.19 mg/kg/injection, schedule: Q01DX009 (ip), vehicle: saline with Tween-80): 100 % of control
- T/C (dose: 0.37 mg/kg/injection, schedule: Q01DX009 (ip), vehicle: saline with Tween-80): 104 % of control
- T/C (dose: 0.75 mg/kg/injection, schedule: Q01DX009 (ip), vehicle: saline with Tween-80): 108 % of control
- T/C (dose: 1.5 mg/kg/injection, schedule: Q01DX009 (ip), vehicle: saline with Tween-80): 96 % of control
- T/C (dose: 1.5 mg/kg/injection, schedule: Q04DX003 (ip), vehicle: saline with Tween-80): 109 % of control
- T/C (dose: 3.0 mg/kg/injection, schedule: Q04DX003 (ip), vehicle: saline with Tween-80): 104 % of control

SMILES: CNC1C(OC2C(OC3C(O)C(O)C(O)C(O)C3O)OC(C)C2(O)CO)OC(CO)C(O)C1O (stereo unspecified) (tested in a mixture with another compound)
- T/C [8]: 100 % of control
- T/C [9]: 100 % of control
- T/C [10]: 100 % of control

SMILES: CCOC(=O)NC12c3ccccc3C(c3ccccc31)C(C(=O)O)C2C(=O)O (stereo unspecified)
- T/C [7]: 118 % of control
- T/C (dose: 200.0 mg/kg/injection, schedule: Q04DX003 (ip), vehicle: saline with Tween-80): 118 % of control
- T/C (dose: 400.0 mg/kg/injection, schedule: Q04DX003 (ip), vehicle: saline with Tween-80): 118 % of control

SMILES: O=C(Cn1ccc(O)cc1=O)N1CCC2(CC1)SSC1(CCN(C(=O)Cn3ccc(O)cc3=O)CC1)S2
- T/C [8]: 100 % of control
- T/C [11]: 105 % of control
- T/C [9]: 100 % of control
- T/C [12]: 116 % of control
- T/C [10]: 95 % of control
- T/C (dose: 400.0 mg/kg/injection, schedule: Q04DX003 (ip), vehicle: saline): 122 % of control

SMILES: O=C1CCCN1
- T/C (dose: 50.0 mg/kg/injection, schedule: Q01DX001 (ip), vehicle: saline): 100 % of control
- T/C [13]: 95 % of control
- T/C (dose: 100.0 mg/kg/injection, schedule: Q01DX001 (ip), vehicle: saline): 118 % of control
- T/C [8]: 105 % of control
- T/C [11]: 87 % of control
- T/C (dose: 200.0 mg/kg/injection, schedule: Q01DX001 (ip), vehicle: saline): 100 % of control
- T/C [9]: 110 % of control
- T/C [10]: 110 % of control

SMILES: Clc1ccc(N=Cc2ccc(C=Nc3ccc(Cl)c(Cl)c3)cc2)cc1Cl
- T/C [4]: 100 % of control
- T/C [5]: 90 % of control
- T/C [6]: 100 % of control

SMILES: C(=Nc1ccc(/C=C\c2ccnc3ccccc23)cc1)Nc1ccc(/C=C\c2ccnc3ccccc23)cc1
- T/C (dose: 12.5 mg/kg/injection, schedule: Q01DX009 (ip), vehicle: saline with Tween-80): 100 % of control
- T/C (dose: 25.0 mg/kg/injection, schedule: Q01DX009 (ip), vehicle: saline with Tween-80): 107 % of control
- T/C [14]: 100 % of control
- T/C [15]: 97 % of control

SMILES: COc1cc(N(CCCl)CCCl)ccc1C=Nc1ccccc1C(=O)O
- T/C (dose: 5.0 mg/kg/injection, schedule: Q01DX009 (ip), vehicle: saline): 227 % of control
- T/C (dose: 11.9 mg/kg/injection, schedule: Q04DX003 (ip), vehicle: saline with Tween-80): 237 % of control
- T/C (dose: 18.0 mg/kg/injection, schedule: Q04DX003 (ip), vehicle: saline with Tween-80): 254 % of control
- T/C (dose: 27.0 mg/kg/injection, schedule: Q04DX003 (ip), vehicle: saline with Tween-80): 116 % of control

SMILES: Cc1cc(=O)[nH]c(N/N=C/c2ccc(O)cc2)n1
- T/C (dose: 75.0 mg/kg/injection, schedule: Q01DX009 (ip), vehicle: Klucel (hydroxypropylcellulose) (HPC)): 104 % of control
- T/C (dose: 150.0 mg/kg/injection, schedule: Q01DX009 (ip), vehicle: Klucel (hydroxypropylcellulose) (HPC)): 109 % of control
- T/C (dose: 300.0 mg/kg/injection, schedule: Q01DX009 (ip), vehicle: Klucel (hydroxypropylcellulose) (HPC)): 95 % of control

SMILES: CC1(C#N)c2ccccc2C=CN1C(=O)c1ccccc1 (stereo unspecified)
- T/C [16]: 90 % of control
- T/C [4]: 100 % of control
- T/C [17]: 100 % of control
- T/C [5]: 95 % of control
- T/C [18]: 100 % of control
- T/C [6]: 100 % of control

SMILES: C=C(C)[C@H]1Cc2c(ccc3c2O[C@@H]2COc4cc(OC)c(OC)cc4[C@@H]2C3=O)O1
- T/C (dose: 4.0 mg/kg/injection, schedule: Q01DX010 (ip), vehicle: saline): 109 % of control
- T/C (dose: 10.0 mg/kg/injection, schedule: Q01DX009 (ip), vehicle: saline): 95 % of control
- T/C (dose: 20.0 mg/kg/injection, schedule: Q01DX009 (ip), vehicle: saline): 155 % of control
- T/C (dose: 40.0 mg/kg/injection, schedule: Q01DX009 (ip), vehicle: saline): 120 % of control

SMILES: CC(=O)OC1CCC(C)(C2CCC3(C)C(C(C)CCCC(C)C)CCC3C2CC(=O)O)C(=O)C1 (stereo unspecified)
- T/C [16]: 90 % of control
- T/C [17]: 90 % of control
- T/C [18]: 95 % of control

SMILES: Fc1ccc(C2CN3C(=N2)C=Cc2ccccc23)cc1 (stereo unspecified)
- T/C [14]: 101 % of control
- T/C (dose: 100.0 mg/kg/injection, schedule: Q01DX009 (ip), vehicle: saline with Tween-80): 99 % of control
- T/C [15]: 117 % of control

SMILES: c1ccc([P+](CCCCCCCCCC[P+](c2ccccc2)(c2ccccc2)c2ccccc2)(c2ccccc2)c2ccccc2)cc1
- T/C (dose: 2.5 mg/kg/injection, schedule: Q01DX010 (ip), vehicle: saline): 100 % of control
- T/C (dose: 5.0 mg/kg/injection, schedule: Q01DX010 (ip), vehicle: saline): 109 % of control

SMILES: NC(Cc1cc(Br)c(O)c(Br)c1)C(=O)O (stereo unspecified)
- T/C [19]: 108 % of control
- T/C [20]: 92 % of control
- T/C [13]: 120 % of control
- T/C [8]: 96 % of control
- T/C [11]: 105 % of control
- T/C [9]: 120 % of control
- T/C [12]: 115 % of control
- T/C [10]: 113 % of control

SMILES: COc1cc2ccc3ccncc3c2cc1OC
- T/C (dose: 12.5 mg/kg/injection, schedule: Q01DX009 (ip), vehicle: saline): 95 % of control
- T/C [19]: 100 % of control
- T/C (dose: 25.0 mg/kg/injection, schedule: Q04DX003 (ip), vehicle: saline): 95 % of control
- T/C [20]: 90 % of control
- T/C [13]: 113 % of control
- T/C [11]: 86 % of control

SMILES: O=[n+]1c2ccccc2n([O-])c2ccccc21.[Cl][Ni][Cl]
- T/C (dose: 6.25 mg/kg/injection, schedule: Q04DX003 (ip), vehicle: saline with Tween-80): 105 % of control
- T/C (dose: 12.5 mg/kg/injection, schedule: Q04DX003 (ip), vehicle: saline with Tween-80): 112 % of control
